Measurements as given in article PMC5884906, “Single Administration of HBK-15—a Triple 5-HT1A, 5-HT7, and 5-HT3 Receptor Antagonist—Reverses Depressive-Like Behaviors in Mouse Model of Depression Induced by Corticosterone” (Molecular Neurobiology, 2017).
“And” between values parts separate entries of the source, which are not always exact repeats. Identical values can stand only once.

How the values were obtained:
[1] = system: NGF level in the hippocampus; test: NGF level in the hippocampus (ELISA), chronic administration; assay type: in vivo, mice; conditions: for effect on corticosterone-induced decrease in NGF level in the hippocampus: 21 days
Method: (§1) The doses and route of administration of the studied compounds were based on our previous experiments. […] Mice were injected with corticosterone (s.c., 20 mg/kg) at random times during the light phase for 21 consecutive days (Fig. 1b). The dose and route of administration of corticosterone was based on studies performed by Zhao and colleagues. Thirty minutes before, corticosterone injection mice were given (i.p.) saline, HBK-14 (1.25 or 2.5 mg/kg), HBK-15 (0.625 or 1.25 mg/kg), or fluoxetine (10 mg/kg) (Fig. 1b). Control mice received (i.p.) saline and 30 min later saline containing 0.1% dimethyl sulfoxide (DMSO) and 0.1% Tween-80 (s.c.). The experimental groups consisted of eight randomly selected animals. After the end of the procedure, animals were tested in the sucrose preference test, forced swim test, elevated plus maze test, and spontaneous locomotor activity test. Following behavioral testing, rodents were scarified and their hippocampi collected for biochemical analysis. After the behavioral assessments, mice were sacrificed, and their brains were rapidly removed and chilled in an ice-cold saline solution. The hippocampi were dissected on a cold plate, frozen, and stored at −80 °C until assay. On the day of experiments, tissues were thawed on ice and homogenized (1:9 w/v) in phosphate-buffered saline (4 °C) and protease inhibitor cocktail was added. The 10% homogenates were prepared and homogenized for 30 s with TissueRuptor homogenizer. The homogenized tissues were centrifuged (2500×g at 4 °C for 20 min), and the supernatants were collected for further assays. Protein concentrations of BDNF and NGF in homogenates from hippocampi were determined using the enzyme-linked immunosorbent assay (ELISA) kits (BDNF: DZE201020014, SunRed Biotechnology Company; NGF: MBS825100, MyBioSource) according to the manufacturer’s instructions. […] The samples were analyzed in duplicates, and the mean concentrations were calculated. […] The intensity of the color was read at 450 nm. Absorbance was measured in a multifunction plate reader (POLARstar Omega, BMG Labtech, Germany). […]

[2] = system: BDNF level in the hippocampus; test: BDNF level in the hippocampus (ELISA), chronic administration; assay type: in vivo, mice; conditions: for effect on corticosterone-induced decrease in BDNF level in the hippocampus: 21 days
Method: as §1

[3] = system: corticosterone-treated mice; test: sucrose preference test, chronic administration, corticosterone model; assay type: in vivo; conditions: for effect on corticosterone-induced decrease in sucrose intake: 21 days
Method: The dose and route of administration of corticosterone was based on studies performed by Zhao and colleagues. Thirty minutes before, corticosterone injection mice were given (i.p.) saline, HBK-14 (1.25 or 2.5 mg/kg), HBK-15 (0.625 or 1.25 mg/kg), or fluoxetine (10 mg/kg) (Fig. 1b). Control mice received (i.p.) saline and 30 min later saline containing 0.1% dimethyl sulfoxide (DMSO) and 0.1% Tween-80 (s.c.). The experimental groups consisted of eight randomly selected animals. After the end of the procedure, animals were tested in the sucrose preference test, forced swim test, elevated plus maze test, and spontaneous locomotor activity test. Following behavioral testing, rodents were scarified and their hippocampi collected for biochemical analysis. The sucrose preference test was conducted according to the slightly modified methods described by Liu and colleagues and Filho and colleagues. The test was performed before and after the administration of corticosterone. Briefly, before the proper test, mice were housed singly and given 72 h training to acclimate to the test procedures. In the first 24 h, access ad libitum to two feeding bottles of 1% (w/v) sucrose solution was given to each mouse. After 24 h, one bottle was replaced with tap water for the next 24 h. Then, mice were deprived of water and food for the third 24 h. On the test day, the weight of each bottle (1% sucrose solution and tap water) was recorded. Test animals were then given the bottles of 1% sucrose and water for 24 h. The consumed liquid weight was measured based on the weight of each bottle of fluids after sucrose preference test minus the original starting weight. The percentage of sucrose intake was calculated using the following equation: %Sucrose intake=Sucrose intake/Sucrose intake+water intake⋅100%

5-HT7 receptor = target: 5-HT7 receptor; design: method as in PMID 26554929; conditions: previous experiments; read-out: 5-HT7 receptor antagonist IC50; cited from earlier work
[4] = corticosterone 20 mg/kg s.c. 21 days + saline

## C[C@]12C[C@H](O)[C@H]3[C@@H](CCC4=CC(=O)CC[C@@]43C)[C@@H]1CC[C@@H]2C(=O)CO [corticosterone]
[1]; [4]
  decrease in NGF level in the hippocampus vs control: 35%
[2]; [4]
  decrease in BDNF level in the hippocampus vs control: 44.0%
[3]; [4]
  decrease in percentage intake of sucrose solution vs control: 17% and 21%

## COc1ccccc1N1CCN(CCOCCOc2c(C)cccc2Cl)CC1.Cl [HBK-15, 1-[(2-chloro-6-methylphenoxy)ethoxyethyl]-4-(2-methoxyphenyl)piperazine hydrochloride]
[1]; 1.25 mg/kg i.p.
  effect on corticosterone-induced decrease in NGF level in the hippocampus: protected corticosterone-treated mice from the decrease in the NGF level
[2]; 1.25 mg/kg i.p.
  effect on corticosterone-induced decrease in BDNF level in the hippocampus: protected corticosterone-treated mice from the decrease in the BDNF level
[3]; 1.25 mg/kg i.p.
  effect on corticosterone-induced decrease in sucrose intake: prevented the decrease in sucrose intake
5-HT7 receptor
  IC50: 0.22 µM

## COc1ccccc1N1CCN(CCOCCOc2c(C)cccc2C)CC1.Cl [HBK-14, 1-[(2,6-Dimethylphenoxy)ethoxyethyl]-4-(2-methoxyphenyl)piperazine hydrochloride]
[3]; 1.25 or 2.5 mg/kg i.p.
  effect on corticosterone-induced decrease in sucrose intake: inactive
5-HT7 receptor
  IC50: 0.077 µM

## CNCCC(Oc1ccc(C(F)(F)F)cc1)c1ccccc1 (stereo not drawn) [fluoxetine, reference compound]
[1]; 10 mg/kg i.p.
  effect on corticosterone-induced decrease in NGF level in the hippocampus: protected corticosterone-treated mice from the decrease in the NGF level
[2]; 10 mg/kg i.p.
  effect on corticosterone-induced decrease in BDNF level in the hippocampus: protected corticosterone-treated mice from the decrease in the BDNF level
[3]; 10 mg/kg i.p.
  effect on corticosterone-induced decrease in sucrose intake: prevented the decrease in sucrose intake
